The target of the assay is T1, Enkephalinase (Rattus norvegicus, UniProt P07861).
T1 construct: from tissue; host or cells: rat striatum, membrane fraction (20,000 g pellet)
T1 sequence (P07861 1-750): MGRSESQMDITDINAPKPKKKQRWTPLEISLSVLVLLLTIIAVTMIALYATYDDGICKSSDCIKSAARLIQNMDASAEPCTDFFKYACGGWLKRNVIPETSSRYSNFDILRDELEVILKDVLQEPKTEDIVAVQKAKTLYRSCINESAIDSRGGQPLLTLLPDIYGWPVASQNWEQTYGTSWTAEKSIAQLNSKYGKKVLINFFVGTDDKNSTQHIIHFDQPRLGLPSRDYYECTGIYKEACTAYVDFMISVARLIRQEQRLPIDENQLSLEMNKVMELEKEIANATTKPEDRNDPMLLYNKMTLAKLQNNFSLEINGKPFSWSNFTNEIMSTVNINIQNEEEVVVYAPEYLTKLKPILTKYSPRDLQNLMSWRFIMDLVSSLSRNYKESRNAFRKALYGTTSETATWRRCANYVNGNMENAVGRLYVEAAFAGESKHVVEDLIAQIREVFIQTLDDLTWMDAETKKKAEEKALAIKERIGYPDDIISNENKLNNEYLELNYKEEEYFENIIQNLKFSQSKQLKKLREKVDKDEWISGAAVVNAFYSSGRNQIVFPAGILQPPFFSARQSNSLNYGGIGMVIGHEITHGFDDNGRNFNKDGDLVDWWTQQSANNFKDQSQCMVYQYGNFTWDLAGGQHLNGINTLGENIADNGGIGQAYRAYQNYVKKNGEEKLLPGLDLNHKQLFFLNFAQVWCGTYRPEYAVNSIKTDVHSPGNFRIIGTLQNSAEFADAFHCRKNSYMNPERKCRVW
The assay is described as follows: Inhibition of enkephalinase in rat striatum membrane fraction (hydrolysis of tritiated leucine-enkephaline). It counts as biochemical. Conditions: striatum membrane fraction of rats; 20 nanomoles tritiated leucine-enkephaline, 1 mM puromycin, 25° C., 15 minutes, Tris pH 7.4; read-out: Enkephalinase inhibition CI50. As to the method:
Enkephalinase activity was determined in a striatum membrane fraction of rats. The straitum was placed in ice and was homogenized in buffered 0.05M Tris with a pH of 7.4 (20 times the volume) and after a first centrifugation at 1000 g, the particular fraction obtained was subjected to two centrifugations for 10 minutes at 20,000 g. The culot was then suspended in buffered Tris and kept at 4° C. The amount of proteins was determined by the Comassie blue method.
After preincubation at 25° C. for 15 minutes, an aliquot of proteins was incubated at 25° C. for 15 minutes in the presence of 20 nanomoles of tritiated leucine-enkephaline (against the first amino acid) previously purified, of 1 mM of puromycin and the test product in buffered Tris. The hydrolysis reaction was stopped by addition of 0.2N hydrochloric acid and the icubate was subjected to a deproteinization by heating at 95° C. for 15 minutes. Under these conditions, the kinetic reaction was linear. The tritiated metabolites obtained by hydrolysis were separated from enkephaline by chromatography over a column of porapak Q and elution with buffered Tris whereby enkephaline was retained in the column and was released in the following ethanolic phase. The activity of the different products was expressed in 50% inhibiting concentration called CI50 in Table I.
Turning to `O=C(CCS)Nc1ccccc1` [N--phenyl-3-mercapto-propanamide, N-phenyl-3-mercapto-propanamide], the IC50 came to 40 µM. As for `O=C(CS)Nc1ccccc1` [N--phenyl-2-mercapto-acetamide, N-phenyl-2-mercapto-acetamide], the IC50 is 3 µM. In the case of `O=C(CS)Nc1nccs1` [N--(2-thiazolyl)-2-mercapto-acetamide, N-(2-thiazolyl)-2-mercapto-acetamide] it was 30 µM. Turning to `O=C(CS)Nc1ccc(Cl)cc1` [N--(4-chlorophenyl)-2-mercapto-acetamide, N-(4-chlorophenyl)-2-mercapto-acetamide], the IC50 worked out at 5 µM. For `CC(=O)SCC(=O)Nc1nccs1` [Ethanethioate of S-[2-(2-thiazolylamino)-2-oxo-ethyl]], the IC50 was 130 µM. In the case of `CC(=O)SCC(=O)Nc1ccc(Cl)cc1` [Ethanethioate of S-[2-(4-chlorophenylamino)-2-oxo-ethyl]], the IC50 worked out at 6 µM.

The record behind these values is patent US4567198A, “Ethanethioates and mercaptoamides and use thereof as analgesic and enkephalinase inhibitory compounds” (Roussel Uclaf, priority 1983, dated 1986).
